{"source": "patent US20100056426A1", "about": "“USE OF IRON CHELATOR FOR THE TREATMENT OF MYOCARDIAL INFARCTION” (NOVARTIS AG, priority 2007, published 2010)", "origin": "cited, not measured here", "key": {"[1]": {"conditions": "humans; Nisbet Brown et al., Lancet 2003"}, "[2]": {"conditions": "model systems; Hershko et al., Blood 2001"}}, "note": "Like-named read-outs stand apart in the source and are kept apart here."}
{"molecule": "O=C(O)c1ccc(-n2nc(-c3ccccc3O)nc2-c2ccccc2O)cc1", "note": "[4-[3,5-bis-(2-hydroxyphenyl)-[1,2,4]-triazol-1-yl]benzoic acid]", "values": [{"measurement": "selective removal of iron", "setting": "[1]", "value": "effective in the selective removal of iron"}, {"measurement": "selective removal of iron", "setting": "[2]", "value": "effective in the selective removal of iron"}]}
